# According to US20080286771A1, “Method of Predicting the Responsiveness of a Tumour to Erbb Receptor Drugs” (priority 2004, published 2008):
# Like-named read-outs stand apart in the source and are kept apart here.
# How the values were obtained:
# [1] = system: advanced NSCLC; settings: advanced NSCLC previously treated with chemotherapy, cited from earlier work
# [2] = system: RT112 bladder tumour cell line xenograft; test: RT112 xenograft response to gefitinib; assay type: in vivo, nude mice
# Description: (§1) This definition is based on the response observed when the tumour cell line is implanted into nude mice and grown as a xenograft. This definition has been used for all the pre-clinical studies described herein.
# [3] = system: Lovo colon tumour cell line xenograft; test: Lovo xenograft response to gefitinib; assay type: in vivo; settings: Lovo xenograft in nude mice
# Description: (§2) This definition is based on the response observed when the tumour cell line is implanted into nude mice and grown as a xenograft. This definition has been used for all the pre-clinical studies described herein. Initially a small panel of six human tumour cell lines were assembled, three which are sensitive to gefitinib and three which are resistant to gefitinib in the xenograft setting defined above. The sensitive cell lines were; • 1.
# [4] = system: MDAMB231 breast tumour cell line xenograft; test: MDAMB231 xenograft response to gefitinib; assay type: in vivo, nude mice
# Description: as §1
# [5] = system: A549 lung tumour cell line xenograft; test: A549 xenograft response to gefitinib; assay type: in vivo; settings: A549 xenograft in athymic mice, oral dosing once daily, mean tumour volume
# Description: (§3) This definition is based on the response observed when the tumour cell line is implanted into nude mice and grown as a xenograft. This definition has been used for all the pre-clinical studies described herein. […] BT474 (ATCC No. HTB-20)-breast tumour cell line • b. DU145 (ATCC No. HTB-81)-[…] tumour cell line • c. MCF7 (ATCC No. HTB-22, sourced from ICRP (now CR-UK), London), -breast tumour cell line • d. GEO colon tumour cell line.
# [6] = system: GEO colon tumour cell line xenograft; test: GEO xenograft response to gefitinib; assay type: in vivo, nude mice
# Description: as §3
# [7] = system: MiaPac2 pancreatic tumour cell line xenograft; test: MiaPac2 xenograft response to gefitinib; assay type: in vivo, nude mice
# Description: as §1
# [8] = system: MKN45 gastric tumour cell line xenograft; test: MKN45 xenograft response to gefitinib; assay type: in vivo; settings: MKN45 xenograft in athymic mice, oral dosing once daily, mean tumour volume
# Description: as §2
# [9] = system: HT29 colon tumour cell line xenograft; test: HT29 xenograft response to gefitinib; assay type: in vivo; settings: HT29 xenograft in nude mice
# Description: as §2
# [10] = system: SW620 colon tumour cell line xenograft; test: SW620 xenograft response to gefitinib; assay type: in vivo, nude mice
# Description: as §1
# [11] = system: DU145 tumour cell line xenograft; test: DU145 xenograft response to gefitinib; assay type: in vivo, nude mice
# Description: as §3
# [12] = system: Calu 6 lung tumour cell line xenograft; test: Calu 6 xenograft response to gefitinib; assay type: in vivo; settings: Calu 6 xenograft in nude mice
# Description: as §2
# [13] = system: KB cell line xenograft; test: KB xenograft response to gefitinib; assay type: in vivo; settings: KB xenograft in nude mice
# Description: as §2
# [14] = system: MCF7 breast tumour cell line xenograft; test: MCF7 xenograft response to gefitinib; assay type: in vivo, nude mice
# Description: as §3
# [15] = system: BT474 breast tumour cell line xenograft; test: BT474 xenograft response to gefitinib; assay type: in vivo, nude mice
# Description: as §3
# [16] = system: advanced NSCLC; settings: cited from earlier work; for Objective response rate (Complete Response+Partial Response): advanced NSCLC previously treated with chemotherapy
# [17] = system: HX147 lung tumour cell line xenograft; test: HX147 xenograft response to gefitinib; assay type: in vivo, nude mice
# Description: as §1
# [18] = system: PC3 prostate tumour cell line xenograft; test: PC3 xenograft response to gefitinib; assay type: in vivo; settings: PC3 xenograft in nude mice
# Description: as §2
# [19] = system: A431 epidermoid cell line xenograft; test: A431 xenograft response to gefitinib; assay type: in vivo, nude mice
# Description: as §3
structure (smiles),measurement,setting,value
C#Cc1cccc(Nc2ncnc3cc(OCCOC)c(OCCOC)cc23)c1 [erlotinib],prolongs survival,[1]; across the population,~2 months
same,reduction in risk of death at one year,[1],41%
"COc1cc2ncnc(Nc3ccc(F)c(Cl)c3)c2cc1OCCCN1CCOCC1 [gefitinib, N-(3-chloro-4-fluorophenyl)-7-methoxy-6-(3-morpholinopropoxy)quinazolin-4-amine]",response when grown as a xenograft (sensitive/resistant),[2],resistant
same,response when grown as a xenograft (sensitive/resistant),[3],sensitive
same,response when grown as a xenograft (sensitive/resistant),[4],resistant
same,response when grown as a xenograft (sensitive/resistant),[5],sensitive
same,response when grown as a xenograft (sensitive/resistant),[6],sensitive
same,response when grown as a xenograft (sensitive/resistant),[7],resistant
same,response when grown as a xenograft (sensitive/resistant),[8],resistant
same,response when grown as a xenograft (sensitive/resistant),[9],sensitive
same,response when grown as a xenograft (sensitive/resistant),[10],resistant
same,response when grown as a xenograft (sensitive/resistant),[11],sensitive
same,response when grown as a xenograft (sensitive/resistant),[12],resistant
same,response when grown as a xenograft (sensitive/resistant),[13],sensitive
same,response when grown as a xenograft (sensitive/resistant),[14],sensitive
same,response when grown as a xenograft (sensitive/resistant),[15],sensitive
same,Objective response rate (Complete Response+Partial Response),"[16]; IDEAL 1 trial, predominantly Japanese",18.4%
same,Objective response rate (Complete Response+Partial Response),"[16]; IDEAL 2 trial, predominantly European-derived population",11.8%
same,"patients overall benefit (objective response, stable disease and/or symptom improvement)",[16]; IDEAL trials,approximately 50%
same,toxicity,"[16]; single agent, advanced NSCLC patients",limited toxicity
same,response when grown as a xenograft (sensitive/resistant),[17],resistant
same,response when grown as a xenograft (sensitive/resistant),[18],resistant
same,response when grown as a xenograft (sensitive/resistant),[19],sensitive
